Laboratory results from EP4800018A1, “PAN-KRAS INHIBITOR AND USE THEREOF IN MEDICINES” (Betta Pharmaceuticals Co., Ltd., priority 2023, dated 2025).
Where two headings read alike, the source gives them in different places.

Columns and labels:
Format in all cases: cell-based
KRAS G12V-cRAF = target: T1, KRAS G12V-cRAF (Homo sapiens, UniProt P01116, G12V); assay: Cellular KRAS G12V-cRAF Binding Inhibition Assay (NanoBRET, AD293 stable cells); details: 3 h incubation, read-out: NanoBRET KRAS G12V
T1 construct: expressed in transfected cells
In short: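 Live AD293 stable cells, NanoLuc donor with HaloTag NanoBRET 618 ligand acceptor added overnight. Inhibition percent from luminescence relative to max signal and medium blank; IC50 from curve fitting.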

KRAS G12D-cRAF = target: T2, KRAS G12D-cRAF (Homo sapiens, UniProt P01116, G12D); assay: Cellular KRAS G12D-cRAF Binding Inhibition Assay (NanoBRET, AD293 stable cells); details: 3 h incubation, read-out: NanoBRET KRAS G12D
T2 construct: expressed in transfected cells
In short: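 AD293 cells stably expressing KRAS G12D-NanoLuc and cRAF RBD-HaloTag were seeded at 1×10^4 cells/well with NanoBRET 618 ligand overnight. BRET signal was converted to % inhibition of binding relative to max and blank wells, and IC50 came from curve fitting.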

[1] = test system: KRAS-G12V mutant tumor cells SW620; assay: Cell Proliferation Inhibition Assay (SW620), Cell-titer GLO, 96 h; details: SW620 cells, 96 h incubation, Cell-titer GLO, read-out: SW620(G12V)
In short: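 SW620 cells (1×10^3/well, low-attachment) were exposed to compound from 10000 to 0.03 nM (0.5% DMSO) for 96 h at 37°C. Viability was read by Cell-titer GLO luminescence. Inhibition was calculated relative to DMSO and blank wells, and IC50 obtained by curve fitting.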

[2] = test system: KRAS-G12D mutant tumor cells AGS; assay: Cell Proliferation Inhibition Assay (AGS), Cell-titer GLO, 96 h; details: AGS cells, 96 h incubation, Cell-titer GLO, read-out: AGS(G12D)
In short: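 AGS cells (KRAS-G12D) grown in low-attachment plates were exposed to compound for 96 h at 37°C. Viability was read by CellTiter-Glo luminescence and converted to % inhibition against max and blank wells. IC50 came from curve fitting.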

T2 sequence (P01116 1-188 isoform P01116-2 G12D): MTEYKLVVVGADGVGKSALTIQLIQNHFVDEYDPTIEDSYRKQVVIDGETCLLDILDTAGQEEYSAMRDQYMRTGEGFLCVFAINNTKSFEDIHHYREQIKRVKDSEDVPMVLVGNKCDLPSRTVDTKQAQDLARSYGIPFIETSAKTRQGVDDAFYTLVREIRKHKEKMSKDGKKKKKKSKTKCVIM
T1 sequence (P01116 1-188 isoform P01116-2 G12V): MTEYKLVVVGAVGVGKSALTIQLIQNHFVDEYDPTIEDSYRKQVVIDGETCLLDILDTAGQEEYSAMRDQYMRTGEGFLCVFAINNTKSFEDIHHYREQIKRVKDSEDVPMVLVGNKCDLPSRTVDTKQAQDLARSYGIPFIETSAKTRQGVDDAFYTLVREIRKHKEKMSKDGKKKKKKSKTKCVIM

IC50 (KRAS G12V-cRAF) [nM] | IC50 (KRAS G12D-cRAF) [nM] | IC50 [1] [nM] | IC50 [2] [nM] | IC50 ([1]; Homo sapiens, SW-620, 96 h) [nM] | IC50 ([2]; Homo sapiens, AGS, 96 h) [nM] | SMILES
5.61 | 1.88 | 0.09 | 0.3 | – | – | CC1OCCCn2c(c3c4cc(ccc42)-c2csc(n2)CC(NC(=O)C2CC2C(F)F)C(=O)N2CCCC(N2)C(=O)OCC(C)(C)C3)-c2cc(N3CC(C)N(C)C(C)C3)cnc21 [Example 142, (1S,2S)-2-(difluoromethyl)-N-((1^5S,6^3S,4S,Z)-1^5,10,10-trimethyl-5,7-dioxo-1^2-((3S,5S)-3,4,5-trimethylpiperazin-1-yl)-1^8,1^9,6^1,6^2,6^3,6^4,6^5,6^6-octahydro-1^5H,1^7H-8-oxa-1(13,15)-pyrido[3',2':7,8] [1,5]oxazonino[5,6-a]indola-2(4,2)-thiazola-6(1,3)-pyridazinacycloundecaphane-4-yl)cyclopropane-1-carboxamide]
8.52 | 1.97 | – | – | 0.6 | 1.4 | CC1OCCCn2c(c3c4cc(ccc42)-c2coc(n2)CC(NC(=O)C2CC2C(F)F)C(=O)N2CCCC(N2)C(=O)OCC(C)(C)C3)-c2cc(N3CCOCC3)cnc21 [Example 146, (1S,2S)-2-(difluoromethyl)-N-((1^5S,6^3S,4S,Z)-1^5,10,10-trimethyl-1^2-morpholino-5,7-dioxo-1^8,1^9, 6^1,6^2,6^3,6^4,6^5 6-octahydro-1^5H,1^7H-8-oxa-1(13,15)-pyrido[3',2':7,8][1,5]oxazonino[5,6-a]indola-2(4,2)-oxazola-6(1,3)-pyridazinacycloundecaphane-4-yl)cyclopropane-1-carboxamide]
10.9 | 3.48 | – | – | 1.09 | 3.19 | CCN1CCN(c2cnc3c(c2)-c2c4c5cc(ccc5n2CCCOC3C)-c2csc(n2)CC(NC(=O)C(C(C)C)N(C)C(=O)N2CCOCC2)C(=O)N2CCCC(N2)C(=O)OCC(C)(C)C4)CC1 [Example 149, N-((2S)-1-(((1^5S,6^3S,4S,Z)-1^2-(4-ethylpiperazin-1-yl)-1^5,10,10-trimethyl-5,7-dioxo-1^8,1^9,6^1,6^2,6^3 ,6^4,6^5,6^6-octahydro-1^5H,1^7H-8-oxa-1(13,15)-pyrido[3',2':7,8][1,5]oxazonino[5,6-a]indola-2(4,2)-thiazola-6(1,3)-pyridazinacycloundecaphane-4-yl)amino)-3-methyl-1-oxobutan-2-yl)-N-methyl morpholine-4-carboxamide]
19.3 | 4.2 | – | – | 0.91 | 1.95 | CC1OCCCn2c(c3c4cc(ccc42)-c2csc(n2)CC(NC(=O)C2CC2C(F)F)C(=O)N2CCCC(N2)C(=O)OCC(C)(C)C3)-c2cc(N3CC4CCC3CN4C)cnc21 [Example 154, (1S,2S)-2-(difluoromethyl)-N-((1^5S,6^3S,4S,Z)-1^5,10,10-trimethyl-1^2-(5-methyl-2,5-diazabicyclo[2.2.2]octan-2-yl)-5,7-dioxo-1^8,1^9,6^1,6^2,6^3,6^4,6^5,6^6-octahydro-1^5H,1^7H-8-oxa-1(13,15)-pyrido[3',2 ':7,8][1,5]oxazonino[5,6-a]indola-2(4,2)-thiazola-6(1,3)-pyridazinacycloundecaphane-4-yl)cyclo propane-1-carboxamide]
5.06 | 1.01 | – | – | 0.11 | 0.58 | CC1OCCCn2c(c3c4cc(ccc42)-c2csc(n2)CC(NC(=O)C2C(C)C2C)C(=O)N2CCCC(N2)C(=O)OCC(C)(C)C3)-c2cc(OCCN3CCOCC3)cnc21 [Example 158, (1r,2R,3S)-2,3-dimethyl-N-((1^5S,6^3S,4S,Z)-1^5,10,10-trimethyl-1^2-(2-morpholinoethoxy)-5,7-dioxo-1^8,1^9,6^1,6^26^3,6^4,6^5,6^6-octahydro-1^5H,1^7H-8-oxa-1(13,15)-pyrido[3',2':7,8][1,5]oxazonino[5,6-a]indola-2(4,2)-thiazola-6(1,3)-pyridazinacycloundecaphane-4-yl)cyclopropane-1-carboxamide]
3.83 | 0.38 | – | – | 0.06 | 0.21 | CCN1CCN(c2cnc3c(c2)-c2c4c5cc(ccc5n2CCCOC3C)-c2csc(n2)CC(NC(=O)C2C(C)C2C)C(=O)N2CCCC(N2)C(=O)OCC(C)(C)C4)CC1 [Example 159, (1r,2R,3S)-N-((1^5S,6^3S,4S,Z)-1^2-(4-ethylpiperazin-1-yl)-1^5,10,10-trimethyl-5,7-dioxo-1^8,1^9,6^1,6^2 ,6^3,6^4,6^5,6^6-octahydro-1^5H,1^7H-8-oxa-1(13,15)-pyrido[3',2':7,8][1,5]oxazonino[5,6-a]indola-2(4, 2)-thiazola-6(1,3)-pyridazinacycloundecaphane-4-yl)-2,3-dimethylcyclopropane-1-carboxamide]
4.52 | 0.92 | – | – | 0.24 | 0.71 | CCN1CCN(c2cnc3c(c2)-c2c4c5cc(ccc5n2CC(C)COC3C)-c2csc(n2)CC(NC(=O)C2CC2C(F)F)C(=O)N2CCCC(N2)C(=O)OCC(C)(C)C4)CC1 [Example 161, (1S,2S)-2-(difluoromethyl)-N-((1^5S,1^8R,6^3S,4S,Z)-1^2-(4-ethylpiperazin-1-yl)-1^5,1^8,10,10-tetramethyl-5,7-dioxo-1^8,1^9,6^1,6^2,6^3,6^4,6^5,6^6-octahydro-1^5H,1^7H-8-oxa-1(13,15)-pyrido[3',2':7,8][1,5]oxazonino[5,6-a]indola-2(4,2)-thiazola-6(1,3)-pyridazinacycloundecaphane-4-yl)cyclopropane-1-c arboxamide]
3.8 | 0.76 | – | – | 0.05 | 0.19 | CC1OCCCn2c(c3c4cc(ccc42)-c2csc(n2)CC(NC(=O)C2C(C)C2C)C(=O)N2CCCC(N2)C(=O)OCC(C)(C)C3)-c2cc(N3CC(C)N(C)C(C)C3)cnc21 [Example 165, (1r,2R,3S)-2,3-dimethyl-N-((1^5S,6^3S,4S,Z)-1^5,10,10-trimethyl-5,7-dioxo-1^2-((3S,5R)-3,4,5-trimethylpiperazin-1-yl)-1^8,1^9,6^1,6^2,6^3,6^4,6^5,6^6-octahydro-1^5H,1^7H-8-oxa-1(13,15)-pyrido[3',2':7,8][1, 5]oxazonino[5,6-a]indola-2(4,2)-thiazola-6(1,3)-pyridazinacycloundecaphane-4-yl)cyclopropane-1-carboxamide]
3.04 | 0.24 | 0.04 | 0.11 | – | – | CC1OCCCn2c(c3c4cc(ccc42)-c2csc(n2)CC(NC(=O)C2C(C)C2C)C(=O)N2CCCC(N2)C(=O)OCC(C)(C)C3)-c2cc(N3CC(C)N(C)C(C)C3)cnc21 [Example 171, (1r,2R,3S)-2,3-dimethyl-N-((1^5S,6^3S,4S,Z)-15,10,10-trimethyl-5,7-dioxo-1^2-((3S,5S)-3,4,5-trimethylpiperazin-1-yl)-1^8,1^9,6^1,6^2,6^3,6^4,6^5,6^6-octahydro-1^5H,1^7H-8-oxa-1(13,15)-pyrido[3',2':7,8][1, 5]oxazonino[5,6-a]indola-2(4,2)-thiazola-6(1,3)-pyridazinacycloundecaphane-4-yl)cyclopropane-1-carboxamide]
6.7 | 2.02 | – | – | 0.32 | 1.1 | CC1OCCCn2c(c3c4cc(ccc42)-c2csc(n2)CC(NC(=O)C24CC(C)(C2)C4)C(=O)N2CCCC(N2)C(=O)OCC(C)(C)C3)-c2cc(N3CC(C)N(C)C(C)C3)cnc21 [Example 172, 3-methyl-N-((1^5S,6^3S,4S,Z)-1^5,10,10-trimethyl-5,7-dioxo-1^2-((3S,5S)-3,4,5-trimethylpiperazin-1-y)-1^8,1^9,6^1,6^2,6^3,6^4,6^5,6^6-octahydro-1^5H,1^7H-8-oxa-1(13,15)-pyrido[3',2':7,8][1,5]oxazonino[5,6-a]indola-2(4,2)-thiazola-6(1,3)-pyridazinacycloundecaphane-4-yl)bicyclo[1.1.1]pentane-1-carb oxamide]
17.6 | 2.7 | – | – | 0.6 | 2 | CC1OCCCn2c(c3c4cc(ccc42)-c2csc(n2)CC(NC(=O)C2CC2C)C(=O)N2NC(C(=O)OCC(C)(C)C3)C3CC2C3)-c2cc(N3CCN(C)CC3)cnc21 [Example 183, (1S,2S)-2-methyl-N-((1^5S,6^4S,4S,Z)-1^5,10,10-trimethyl-1^2-(4-methylpiperazin-1-yl)-5,7-dioxo-1 ^8,1^9-dihydro-1^5H,1^7H-8-oxa-6^2,6^3-diaza-1(13,15)-pyrido[3',2':7,8][1,5]oxazonino[5,6-a]indola-2(4,2)-thiazola-6(2,4)-bicyclo[3.1.1]heptanacycloundecaphane-4-yl)cyclopropane-1-carboxamide]
